The test system of experiment [1] is HGC‐27 (gastric carcinoma). The experiment in a line: Resazurin cell viability assay, HGC‐27. Format: cell-based. Conditions: Homo sapiens, HGC-27. In outline:
(§1)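 Cells in DMEM/10% FBS, 1 × 10^3 per well, adhered overnight, then treated with compounds (0–50 µM) for 72 h. Viability read as fluorescence (ex 530, em 590 nm) after 4 h with 44 µM resazurin. % growth inhibition at 50 µM and IC50 by nonlinear regression, triplicates.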
On the technique in general: The colour change of resazurin is a common sign of viable cells or microbes.

The subject of another experiment is CAL‐27 (oral carcinoma). The experiment in a line: Resazurin cell viability assay, CAL‐27. Format: cell-based. Conditions: Homo sapiens, CAL-27. In outline: as §1
For experiment [2], the system named is MKN‐45 (gastric carcinoma) cells. Conditions: cited from earlier work.
Experiment [3] has as its system stomach carcinoma cell line (NUGC3). Also on record: method as in PMID 15293996, PMID 23237054. Conditions: cited from earlier work.
Another experiment has as its system BT‐20 (breast carcinoma). The experiment in a line: Resazurin cell viability assay, BT‐20. The class given is cell-based. Conditions: Homo sapiens, BT-20. In outline: as §1
Experiment [4] has as its system tubulin. The experiment in a line: Tubulin polymerization (inhibition) assay kit. To be noted: n = 2. The class given is biochemical. How it is done: To evaluate the effect of the compounds on tubulin polymerization, the Tubulin Polymerization Assay Kit (Cytoskeleton Inc.) was used according to the manufacturer's instructions. Briefly, 5 µL of the compounds (final concentration ranging from 0.1 to 100 µM) were pipetted per well into a pre‐warmed 96‐well black‐bottom plate at 37°C. After 1 min, 55 µL of the tubulin reaction mix (1X Buffer 1, 0.7X Tubulin Glycerol Buffer, 1 mM GTP, and 2 mg/mL tubulin) was added to each well. Next, after 5 s of shaking, fluorescence detection (excitation: 340–360 nm, emission: 410–460 nm) was performed using a microplate fluorimeter. […] Data were plotted, and IC₅₀ values were determined by nonlinear regression using GraphPad Prism software 9.0.
^c Tubulin polymerization was evaluated using a commercial assay kit, following standard procedures. Compounds were incubated with tubulin, and fluorescence was measured over time to generate kinetic curves and determine the maximum polymerization rate (Vmax). These experiments were carried out in duplicate.

Experiment [5] deals with BT‐20 breast cancer cells. As to the kind of experiment: Cell‐cycle assay by flow cytometry. The class given is cell-based. To be noted: 2.5 µM, 24 h. The method, then:
BT‐20 cells were seeded in 10 cm plates (1.5 × 10⁶ cells/plate) and incubated at 37°C with 5% CO₂ for 24 h. Subsequently, the cells were treated with different compounds at a concentration of 2.5 µM for 24 h. After treatment, the cells were collected by centrifugation and fixed in cold 70% ethanol for 1 h at 4°C. The cells were then washed, collected by centrifugation, and treated with RNase A (100 μg/mL, Sigma‐Aldrich) for 30 min at 37°C, followed by staining with propidium iodide (50 μg/mL) for 15 min at 37°C. Finally, the percentages of cells in each phase of the cell cycle were determined using FACSCalibur flow cytometry (BD Biosciences—San Jose, CA, USA). Cell‐cycle distribution was analyzed using ModFit LT V3.3 software.
Background: In flow cytometry, cells or beads pass a laser one at a time.

The subject of experiment [6] is OHMF (non‐tumoral oral fibroblast). The experiment in a line: Resazurin cell viability assay, OHMF fibroblasts. The class given is cell-based. To be noted: Homo sapiens, 72 h, n = 3. The method, then:
The tongue squamous cell carcinoma cell line CAL‐27 (ATCC CRL‐2095), breast carcinoma BT‐20 (ATCC HTB‐19), gastric carcinoma HGC‐27 (BCRJ Code 0310), and normal oral fibroblast OHMF (culture of fibroblasts derived from human oral healthy mucosa, approved by the Research Ethics Committee of the University of São Paulo, Campus of Ribeirão Preto, Brazil (with protocol number 049) were cultured in DMEM medium (DMEM, Sigma‐Aldrich, St. Louis, MO, USA) supplemented with 10% fetal bovine serum and a solution of penicillin (100 U/mL) and streptomycin (100 μg/mL). The cultures were maintained in a humidified incubator with 5% CO₂ at 37°C.
Cell viability was analyzed using the resazurin assay. For this, cells were seeded in 96‐well plates (1 × 10^3 cells per well) and incubated at 37°C with 5% CO₂ overnight for cell adhesion. Subsequently, the cells were treated with different compounds (0–50 µM) for 72 h. After treatment, the medium was replaced with phenol‐free DMEM medium (Sigma‐Aldrich) containing resazurin at a concentration of 44 µM (Sigma‐Aldrich). After incubation for 4 h at 37°C, fluorescence detection was performed (excitation 530/25 nm, emission 590/35 nm) using a microplate fluorimeter (Synergy 2, Biotek). Initial cell growth inhibition assays were performed in triplicate or quadruplicate, while IC50 determinations were conducted in triplicate. Data were plotted, and IC₅₀ values were determined by nonlinear regression using GraphPad Prism software 9.0.

The subject of another experiment is GNP15. As to the kind of experiment: Resazurin cellular growth inhibition, GNP15. The class given is cell-based. Conditions: 72 hours, triplicate; read-out: IC50 (nM, Cellular growth inhibition) GNP15 (supplement). The method, then:
^b IC50 values were determined using the same resazurin-based assay, with fluorescence measurements performed after 72 hours of treatment. These experiments were carried out in triplicate.

Experiment [7] concerns tubulin. Also on record: method as in PMID 37895970. Conditions: read-out: IC50 for tubulin destabilization (literature); cited from earlier work.
Setting [8] is: 72 h, mean ± SD, n = 3, read-out: IC50 (nM) HGC‐27.
Setting [9] is: 72 hours, triplicate, read-out: IC50 (nM, Cellular growth inhibition) HGC-27 (supplement).
[10] abbreviates: 72 h, mean ± SD, n = 3, read-out: IC50 (nM) CAL‐27.
Setting [11] is: 72 hours, triplicate, read-out: IC50 (nM, Cellular growth inhibition) CAL-27 (supplement).
[12] abbreviates: 72 h, mean ± SD, n = 3, read-out: IC50 (nM) BT‐20.
The mark [13] stands for this setting: 72 hours, triplicate, read-out: IC50 (nM, Cellular growth inhibition) BT-20 (supplement).

Like-named read-outs stand apart in the source and are kept apart here. Some results are limits rather than exact numbers.

Consider four compounds from publication PMC12673918, “Design, Synthesis, and Selective Antiproliferative Activity of Indolizine Derivatives as Microtubule Destabilizers” (Archiv Der Pharmazie, 2025).

What is called IC50 is the concentration needed to halve the response being measured. With `COc1ccc2c(C(=O)c3cc(OC)c(OC)c(OC)c3)c[nH]c2c1` [BPR0L075, reference compound], the IC50 in experiment [1] (setting [8]) turned out to be 5 ± 1.4 nM; in experiment [1] (setting [9]), 45 ± 7 nM; with CAL‐27 (oral carcinoma) (setting [10]), 2 ± 0.1 nM; in the experiment on CAL‐27 (oral carcinoma) (setting [11]), 48 ± 16 nM; in the experiment with BT‐20 (breast carcinoma) (setting [12]), 4 ± 1.1 nM; in the experiment with BT‐20 (breast carcinoma) (setting [13]) it was 3 ± 0.6 nM. The “fold improvement in antiproliferative activity over combretastatin A‐4” value in [2] (MKN‐45 cells) is listed as over 10 fold. For the same compound, the “growth inhibitory activity against NUGC3” value in experiment [3] is “demonstrated growth inhibitory activity”.
As to `COc1ccc(/C=C\c2cc(OC)c(OC)c(OC)c2)cc1O` [Combretastatin A-4, combretastatin A‐4], the “growth inhibitory activity against NUGC3” value in experiment [3] is listed as “no appreciable effect”.
By inhibition is commonly meant the relative decrease from the control value, in per cent. `COc1ccc2c(C(=O)c3cc(OC)c(OC)c(OC)c3)ccn2c1` [Compound 7f, (6‐methoxyindolizin‐1‐yl)(3,4,5‐trimethoxyphenyl)methanone]: the inhibition at 50 µM was found to be 43 ± 0.7% in experiment [1] (50 µM, 72 h, mean ± SD, n = 3, read-out: % Cellular growth inhibition (at 50 µM) HGC‐27); 58 ± 1.3% in the experiment on CAL‐27 (oral carcinoma) (50 µM, 72 h, mean ± SD, n = 3, read-out: % Cellular growth inhibition (at 50 µM) CAL‐27); 43 ± 0.8% with BT‐20 (breast carcinoma) (50 µM, 72 h, mean ± SD, n = 3, read-out: % Cellular growth inhibition (at 50 µM) BT‐20). For the same compound, the IC50 in [1] (setting [8]) was 475 ± 105 nM; in [1] (setting [9]) it was 111 ± 28 nM; in the experiment on CAL‐27 (oral carcinoma) (setting [10]), 105 ± 21 nM; with CAL‐27 (oral carcinoma) (setting [11]) it was 475 ± 105 nM; with tubulin [4] it was 14.8 µM; in experiment [2] (MKN‐45 gastric cancer cells), 80 nM. The IC50 in experiment [6] was over 50000 nM; in the experiment on GNP15 it was over 50000 nM; in the experiment on BT‐20 (breast carcinoma) (setting [12]) it was 111 ± 28 nM; in the experiment on BT‐20 (breast carcinoma) (setting [13]), 105 ± 21 nM. For the same compound, in [5], the “cell‐cycle distribution” value was “significant accumulation of cells in the G2/M phase”.
On to `COc1ccc(N(C)c2nc(C)nc3ccccc23)cc1` [Verubulin, reference compound], for which the IC50 in experiment [1] (setting [8]) was 3 ± 0.4 nM; in [1] (setting [9]) it was 5 ± 0.7 nM; with CAL‐27 (oral carcinoma) (setting [10]), 2 ± 0.3 nM; in the experiment on CAL‐27 (oral carcinoma) (setting [11]), 3 ± 0.4 nM; in the experiment on tubulin [4], 3.2 µM; with tubulin [7], 3.2 ± 0.7 µM. In addition, the half-maximal inhibitory concentration (IC50) in the experiment on BT‐20 (breast carcinoma) (setting [12]) stood at 5 ± 0.7 nM; with BT‐20 (breast carcinoma) (setting [13]), 2 ± 0.3 nM.
